Experimental findings from patent US12678507B2, “Protein tyrosine kinase 6 (PTK6) degradation / disruption compounds and methods of use” (Icahn School of Medicine at Mount Sinai, priority 2018, dated 2026) are described below.

For the experiment, the target named is T1, PTK6 (Homo sapiens, UniProt Q13882).
T1 construct: endogenous in cells; host or cells: MDA-MB231 cells (ATCC)
T1 sequence (Q13882 whole entry): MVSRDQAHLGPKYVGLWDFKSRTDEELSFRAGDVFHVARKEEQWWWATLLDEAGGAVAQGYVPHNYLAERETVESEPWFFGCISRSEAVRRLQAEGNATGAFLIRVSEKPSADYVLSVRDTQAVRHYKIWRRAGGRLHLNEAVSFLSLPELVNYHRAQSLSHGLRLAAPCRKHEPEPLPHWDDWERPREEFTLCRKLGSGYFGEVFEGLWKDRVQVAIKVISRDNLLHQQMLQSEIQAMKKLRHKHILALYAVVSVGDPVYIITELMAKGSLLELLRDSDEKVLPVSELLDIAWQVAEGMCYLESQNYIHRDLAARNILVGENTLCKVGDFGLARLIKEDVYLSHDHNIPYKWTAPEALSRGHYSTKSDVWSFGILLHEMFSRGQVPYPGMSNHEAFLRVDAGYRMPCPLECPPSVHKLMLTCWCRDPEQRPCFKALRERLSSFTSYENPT
The experiment in a line: Western blot of PTK6 protein levels in MDA-MB231 cells. The note with it: MDA-231 (MDA-MB231) cells, 500 nM, 24 hours, Western blot (FIGS. 3-5). It counts as cell-based. The procedure:
FIGS. 2-5. Effects of exemplary compounds on reducing PTK6 protein levels in breast cancer cells. Triple negative MDA-MB231 cells were treated for 24 hours with 500 nM, 2 uM or 2.5 uM of test compound and lysed. Proteins were resolved by SDS/PAGE and immunoblotted with antibody to PTK6 (Santa Cruz, Cell Signaling) or GAPDH loading control (Cell Signaling).
FIG. 13. PTK6 degraders suppress PTK6 expression. MDA-MB231 cells were treated with compounds (500 nM or 1 uM) for 24 hours in monolayer cultures. Cells were lysed and lysates were probed with anti-PTK6 antibody.
MDA-MB231 cells were treated with DMSO or indicated compounds at 2.5 uM, 2 uM or 500 nM for 24 hours.
MDA-MB231 cells were treated with compounds (500 nM or 1 uM) for 24 hours in monolayer cultures. Cells were lysed and lysates were probed with anti-PTK6 antibody.
Cells were lysed in 1% NP-40 lysis buffer containing NaF, Na3VO4, Leupeptin, PMSF, aprotinin, and phosphatase inhibitor (PhosSTOP, Roche) as described previously (Irie et al., 2010). Cleared cell lysates were stored at −80° C. and were analyzed by western analysis as described previously (Irie et al., 2010).
Consider `Cc1ncsc1-c1ccc(CNC(=O)[C@@H]2C[C@@H](O)CN2C(=O)[C@@H](NC(=O)CCCCNC(=O)CN2CCN(C(=O)c3ccc(Nc4nc(C5CC5)cn5c(-c6cn[nH]c6)cnc45)c(F)c3)CC2)C(C)(C)C)cc1` [YX39-101, (2S,4R)-1-((S)-2-(5-(2-(4-(4-((6-cyclopropyl-3-(1H-pyrazol-4-yl)imidazo[1,2-a]pyrazin-8-yl)amino)-3-fluorobenzoyl)piperazin-1-yl)acetamido)pentanamido)-3,3-dimethylbutanoyl)-4-hydroxy-N-(4-(4-methylthiazol-5-yl)benzyl)pyrrolidine-2-carboxamide], for which the “reducing PTK6 protein levels / suppress PTK6 expression” value is listed as “effective in reducing PTK6 protein levels”.
On to `Cc1ncsc1-c1ccc(CNC(=O)[C@@H]2C[C@@H](O)CN2C(=O)[C@@H](NC(=O)CCCCCNC(=O)CN2CCN(C(=O)c3ccc(Nc4nc(C5CC5)cn5c(-c6cn[nH]c6)cnc45)c(F)c3)CC2)C(C)(C)C)cc1` [YX39-102, (2S,4R)-1-((S)-2-(6-(2-(4-(4-((6-cyclopropyl-3-(1H-pyrazol-4-yl)imidazo[1,2-a]pyrazin-8-yl)amino)-3-fluorobenzoyl)piperazin-1-yl)acetamido)hexanamido)-3,3-dimethylbutanoyl)-4-hydroxy-N-(4-(4-methylthiazol-5-yl)benzyl)pyrrolidine-2-carboxamide], for which the “reducing PTK6 protein levels / suppress PTK6 expression” value is on record as “effective in reducing PTK6 protein levels”.
To `Cc1ncsc1-c1ccc(CNC(=O)[C@@H]2C[C@@H](O)CN2C(=O)[C@@H](NC(=O)CCCCCCCNC(=O)CN2CCN(C(=O)c3ccc(Nc4nc(C5CC5)cn5c(-c6cn[nH]c6)cnc45)c(F)c3)CC2)C(C)(C)C)cc1` [YX39-104, (2S,4R)-1-((S)-2-(8-(2-(4-(4-((6-cyclopropyl-3-(1H-pyrazol-4-yl)imidazo[1,2-a]pyrazin-8-yl)amino)-3-fluorobenzoyl)piperazin-1-yl)acetamido)octanamido)-3,3-dimethylbutanoyl)-4-hydroxy-N-(4-(4-methylthiazol-5-yl)benzyl)pyrrolidine-2-carboxamide] belongs “effective in reducing PTK6 protein levels”; to `Cc1ncsc1-c1ccc(CNC(=O)[C@@H]2C[C@@H](O)CN2C(=O)[C@@H](NC(=O)CCCCCCCCCNC(=O)CN2CCN(C(=O)c3ccc(Nc4nc(C5CC5)cn5c(-c6cn[nH]c6)cnc45)c(F)c3)CC2)C(C)(C)C)cc1` [YX39-106, (2S,4R)-1-((S)-2-(10-(2-(4-(4-((6-cyclopropyl-3-(1H-pyrazol-4-yl)imidazo[1,2-a]pyrazin-8-yl)amino)-3-fluorobenzoyl)piperazin-1-yl)acetamido)decanamido)-3,3-dimethylbutanoyl)-4-hydroxy-N-(4-(4-methylthiazol-5-yl)benzyl)pyrrolidine-2-carboxamide], “effective in reducing PTK6 protein levels”; to `Cc1ncsc1-c1ccc(CNC(=O)[C@@H]2C[C@@H](O)CN2C(=O)[C@@H](NC(=O)CCCCCCCCCCNC(=O)CN2CCN(C(=O)c3ccc(Nc4nc(C5CC5)cn5c(-c6cn[nH]c6)cnc45)c(F)c3)CC2)C(C)(C)C)cc1` [YX39-107, (2S,4R)-1-((S)-2-(11-(2-(4-(4-((6-cyclopropyl-3-(1H-pyrazol-4-yl)imidazo[1,2-a]pyrazin-8-yl)amino)-3-fluorobenzoyl)piperazin-1-yl)acetamido)undecanamido)-3,3-dimethylbutanoyl)-4-hydroxy-N-(4-(4-methylthiazol-5-yl)benzyl)pyrrolidine-2-carboxamide], “effective in reducing PTK6 protein levels”.
To `Cc1ncsc1-c1ccc([C@H](C)NC(=O)[C@@H]2C[C@@H](O)CN2C(=O)[C@@H](NC(=O)COCCOCCOCCNC(=O)CN2CCN(C(=O)c3ccc(Nc4nc(C5CC5)cn5c(-c6cn[nH]c6)cnc45)c(F)c3)CC2)C(C)(C)C)cc1` [YX69-159, (2S,4R)-1-((S)-2-(tert-butyl)-17-(4-(4-((6-cyclopropyl-3-(1H-pyrazol-4-yl)imidazo[1,2-a]pyrazin-8-yl)amino)-3-fluorobenzoyl)piperazin-1-yl)-4,16-dioxo-6,9,12-trioxa-3,15-diazaheptadecanoyl)-4-hydroxy-N-((S)-1-(4-(4-methylthiazol-5-yl)phenyl)ethyl)pyrrolidine-2-carboxamide] belongs “potently suppress PTK6 expression”; to `Cc1ncsc1-c1ccc(CNC(=O)[C@@H]2C[C@@H](O)CN2C(=O)[C@@H](NC(=O)CCCC(=O)N2CCN(C(=O)c3ccc(Nc4nc(C5CC5)cn5c(-c6cn[nH]c6)cnc45)c(F)c3)CC2)C(C)(C)C)cc1` [YX79-10, (2S,4R)-1-((S)-2-(5-(4-(4-((6-cyclopropyl-3-(1H-pyrazol-4-yl)imidazo[1,2-a]pyrazin-8-yl)amino)-3-fluorobenzoyl)piperazin-1-yl)-5-oxopentanamido)-3,3-dimethylbutanoyl)-4-hydroxy-N-(4-(4-methylthiazol-5-yl)benzyl)pyrrolidine-2-carboxamide], “potently suppress PTK6 expression”.
Regarding `Cc1ncsc1-c1ccc(CNC(=O)[C@@H]2C[C@@H](O)CN2C(=O)[C@@H](NC(=O)CCCCC(=O)N2CCN(C(=O)c3ccc(Nc4nc(C5CC5)cn5c(-c6cn[nH]c6)cnc45)c(F)c3)CC2)C(C)(C)C)cc1` [YX79-11, (2S,4R)-1-((S)-2-(6-(4-(4-((6-cyclopropyl-3-(1H-pyrazol-4-yl)imidazo[1,2-a]pyrazin-8-yl)amino)-3-fluorobenzoyl)piperazin-1-yl)-6-oxohexanamido)-3,3-dimethylbutanoyl)-4-hydroxy-N-(4-(4-methylthiazol-5-yl)benzyl)pyrrolidine-2-carboxamide], the “reducing PTK6 protein levels / suppress PTK6 expression” value is given as “potently suppress PTK6 expression”.
`Cc1ncsc1-c1ccc(CNC(=O)[C@@H]2C[C@@H](O)CN2C(=O)[C@@H](NC(=O)CCCCCC(=O)N2CCN(C(=O)c3ccc(Nc4nc(C5CC5)cn5c(-c6cn[nH]c6)cnc45)c(F)c3)CC2)C(C)(C)C)cc1` [YX79-12, (2S,4R)-1-((S)-2-(7-(4-(4-((6-cyclopropyl-3-(1H-pyrazol-4-yl)imidazo[1,2-a]pyrazin-8-yl)amino)-3-fluorobenzoyl)piperazin-1-yl)-7-oxoheptanamido)-3,3-dimethylbutanoyl)-4-hydroxy-N-(4-(4-methylthiazol-5-yl)benzyl)pyrrolidine-2-carboxamide]: the “reducing PTK6 protein levels / suppress PTK6 expression” value was “potently suppress PTK6 expression”.
Turning to `Cc1ncsc1-c1ccc(CNC(=O)[C@@H]2C[C@@H](O)CN2C(=O)[C@@H](NC(=O)CCOCCC(=O)N2CCN(C(=O)c3ccc(Nc4nc(C5CC5)cn5c(-c6cn[nH]c6)cnc45)c(F)c3)CC2)C(C)(C)C)cc1` [YX79-15, (2S,4R)-1-((S)-2-(3-(3-(4-(4-((6-cyclopropyl-3-(1H-pyrazol-4-yl)imidazo[1,2-a]pyrazin-8-yl)amino)-3-fluorobenzoyl)piperazin-1-yl)-3-oxopropoxy)propanamido)-3,3-dimethylbutanoyl)-4-hydroxy-N-(4-(4-methylthiazol-5-yl)benzyl)pyrrolidine-2-carboxamide], the “reducing PTK6 protein levels / suppress PTK6 expression” value is recorded as “potently suppress PTK6 expression”.
Regarding `O=C1CCC(N2C(=O)c3cccc(NCCOCCOCCC(=O)N4CCN(C(=O)c5ccc(Nc6nc(C7CC7)cn7c(-c8cn[nH]c8)cnc67)c(F)c5)CC4)c3C2=O)C(=O)N1` (stereo not shown) [YX79-36, 4-((2-(2-(3-(4-(4-((6-cyclopropyl-3-(1H-pyrazol-4-yl)imidazo[1,2-a]pyrazin-8-yl)amino)-3-fluorobenzoyl)piperazin-1-yl)-3-oxopropoxy)ethoxy)ethyl)amino)-2-(2,6-dioxopiperidin-3-yl)isoindoline-1,3-dione], the “reducing PTK6 protein levels / suppress PTK6 expression” value was “potently suppress PTK6 expression”.
With `O=C1CCC(N2C(=O)c3cccc(NCCOCCOCCOCCC(=O)N4CCN(C(=O)c5ccc(Nc6nc(C7CC7)cn7c(-c8cn[nH]c8)cnc67)c(F)c5)CC4)c3C2=O)C(=O)N1` (stereo not shown) [YX79-37, 4-((2-(2-(2-(3-(4-(4-((6-cyclopropyl-3-(1H-pyrazol-4-yl)imidazo[1,2-a]pyrazin-8-yl)amino)-3-fluorobenzoyl)piperazin-1-yl)-3-oxopropoxy)ethoxy)ethoxy)ethyl)amino)-2-(2,6-dioxopiperidin-3-yl)isoindoline-1,3-dione], the “reducing PTK6 protein levels / suppress PTK6 expression” value is “potently suppress PTK6 expression”.
The entry for `Cc1ncsc1-c1ccc(CNC(=O)[C@@H]2C[C@@H](O)CN2C(=O)[C@@H](NC(=O)COCC(=O)N2CCN(C(=O)c3ccc(Nc4nc(C5CC5)cn5c(-c6cn[nH]c6)cnc45)c(F)c3)CC2)C(C)(C)C)cc1` [YX79-40, (2S,4R)-1-((S)-2-(2-(2-(4-(4-((6-cyclopropyl-3-(1H-pyrazol-4-yl)imidazo[1,2-a]pyrazin-8-yl)amino)-3-fluorobenzoyl)piperazin-1-yl)-2-oxoethoxy)acetamido)-3,3-dimethylbutanoyl)-4-hydroxy-N-(4-(4-methylthiazol-5-yl)benzyl)pyrrolidine-2-carboxamide] is “potently suppress PTK6 expression”.
